The results in this text go back to patent US10570108B2, “Substituted benzofuran compounds for the treatment of hepatitis C” (BRISTOL-MYERS SQUIBB COMPANY, priority 2015, dated 2020).

This test has as its system HCV replicon. Kind of test: HCV replicon luciferase assay. The class given is cell-based. The following applies: Hepatitis C virus, Huh-7, 72 h. As to the method: Cell lines. The cell lines used to evaluate compounds consist of a human hepatocyte derived cell line (Huh-7) that constitutively expresses a genotype 1b (Con-1) HCV replicon or a genotype 1b (Con-1) HCV replicon with an asparagine replacing the cysteine at amino acid 316, or a genotype 2a (JFH-1) replicon, containing a Renilla luciferase reporter gene. These cells were maintained in Dulbecco's modified Eagle medium (DMEM) containing 10% FBS, 100 U/mL penicillin/streptomycin and 1.0 mg/mL G418.
HCV replicon luciferase assay. To evaluate compound efficacy, titrated compounds were transferred to sterile 384-well tissue culture treated plates, and the plates were seeded with HCV replicon cells (50 μL at a density of 2.4×10^3 cells/well) in DMEM containing 4% FBS (final DMSO concentration at 0.5%). After 3 days incubation at 37° C., cells were analyzed for Renilla Luciferase activity using the EnduRen substrate (Promega cat #E6485) according to the manufacturer's directions. Briefly, the EnduRen substrate was diluted in DMEM and then added to the plates to a final concentration of 7.5 μM. The plates were incubated for at least 1 h at 37° C. then read on a Viewlux Imager (PerkinElmer) using a luminescence program. The 50% effective concentration (EC50) was calculated using the four-parameter logistic formula noted above.
Background: A replicon is a self-replicating genome or part of one, used to study replication in cells.
Take `CCN(CC)c1cc2oc(-c3ccc(F)cc3)c(C(=O)NC)c2cc1-c1cccc(C(=O)N[C@H]2C(O)O[C@H](CO)[C@@H](O)[C@@H]2O)c1` (stereo partly drawn) [Compound 1001]: the EC50 is 2820 nM. In turn, `CCN(CC)c1cc2oc(-c3ccc(F)cc3)c(C(=O)NC)c2cc1-c1cccc(C(=O)NCCC2(O)CCCC2)c1` [Compound 1002] showed a concentration giving a half-maximal response (EC50) below 100 nM. For `CCN(CC)c1cc2oc(-c3ccc(F)cc3)c(C(=O)NC)c2cc1-c1cccc(C(=O)NC[C@H]2CCCC[C@H]2O)c1` [Compound 1003] the value was below 100 nM. `CCOC(=O)[C@@H]1CCCC[C@@H]1NC(=O)c1cccc(-c2cc3c(C(=O)NC)c(-c4ccc(F)cc4)oc3cc2N(CC)CC)c1` [Compound 1004] had an EC50 below 100 nM. For `CCN(CC)c1cc2oc(-c3ccc(F)cc3)c(C(=O)NC)c2cc1-c1cccc(C(=O)NC2CC(O)C2)c1` (stereo not drawn) [Compound 1005] the value was below 100 nM; for `CCN(CC)c1cc2oc(-c3ccc(F)cc3)c(C(=O)NC)c2cc1-c1cccc(C(=O)NC2CCC(O)C2)c1` (stereo not drawn) [Compound 1006], 44.5 nM; for `CCOC(=O)[C@H]1CCCC[C@@H]1NC(=O)c1cccc(-c2cc3c(C(=O)NC)c(-c4ccc(F)cc4)oc3cc2N(CC)CC)c1` [Compound 1007], below 100 nM.

The compound `CCOC(=O)CC1(NC(=O)c2cccc(-c3cc4c(C(=O)NC)c(-c5ccc(F)cc5)oc4cc3N(CC)CC)c2)CCCCC1` [Compound 1008] gave an EC50 below 100 nM.

The compound `CCN(CC)c1cc2oc(-c3ccc(F)cc3)c(C(=O)NC)c2cc1-c1cccc(C(=O)N[C@H]2CC=CC[C@H]2CO)c1` [Compound 1009] registered a concentration giving a half-maximal response (EC50) below 100 nM. For `CCN(CC)c1cc2oc(-c3ccc(F)cc3)c(C(=O)NC)c2cc1-c1cccc(C(=O)NCc2ccccc2C(=O)OC)c1` [Compound 1010] the value was below 100 nM; for `CCN(CC)c1cc2oc(-c3ccc(F)cc3)c(C(=O)NC)c2cc1-c1cccc(C(=O)NCC2(Cn3cccn3)CC2)c1` [Compound 1011], 26.1 nM; for `CCN(CC)c1cc2oc(-c3ccc(F)cc3)c(C(=O)NC)c2cc1-c1cccc(C(=O)NCCCn2ccnc2)c1` [Compound 1012], below 100 nM. For `CCN(CC)c1cc2oc(-c3ccc(F)cc3)c(C(=O)NC)c2cc1-c1cccc(C(=O)NCCCn2cncn2)c1` [Compound 1013], the half-maximal effective concentration (EC50) was below 100 nM.

Compound `CCN(CC)c1cc2oc(-c3ccc(F)cc3)c(C(=O)NC)c2cc1-c1cccc(C(=O)NCCN2CCNC2=O)c1` [Compound 1014] displayed an EC50 below 100 nM. For `CCOP(=O)(CCCNC(=O)c1cccc(-c2cc3c(C(=O)NC)c(-c4ccc(F)cc4)oc3cc2N(CC)CC)c1)OCC` [Compound 1015] the value was below 100 nM.

With `CCN(CC)c1cc2oc(-c3ccc(F)cc3)c(C(=O)NC)c2cc1-c1cccc(C(=O)NCCNS(=O)(=O)c2ccc(C)cc2)c1` [Compound 1016], the midpoint of the response, the EC50, lay at 32.5 nM. For `CCN(CC)c1cc2oc(-c3ccc(F)cc3)c(C(=O)NC)c2cc1-c1cccc(C(=O)NCC(=N)N)c1` [Compound 1017] the value was 100 to 1000 nM; for `CCN(CC)c1cc2oc(-c3ccc(F)cc3)c(C(=O)NC)c2cc1-c1cccc(C(=O)NCC2(c3ccccc3)CC2)c1` [Compound 1018], 100 to 1000 nM. For `CCN(CC)c1cc2oc(-c3ccc(F)cc3)c(C(=O)NC)c2cc1-c1cccc(C(=O)NCC2(C#N)CC2)c1` [Compound 1019] the value was below 100 nM. The compound `CCN(CC)c1cc2oc(-c3ccc(F)cc3)c(C(=O)NC)c2cc1-c1cccc(C(=O)NCC2(COC)CC2)c1` [Compound 1020] yielded an EC50 below 100 nM.

On to `CCN(CC)c1cc2oc(-c3ccc(F)cc3)c(C(=O)NC)c2cc1-c1cccc(C(=O)NCC2(COc3ccccc3)CC2)c1` [Compound 1021], for which the midpoint of the response, the EC50, lay at 172 nM. For `CCN(CC)c1cc2oc(-c3ccc(F)cc3)c(C(=O)NC)c2cc1-c1cccc(C(=O)NCCCOc2ccccc2)c1` [Compound 1022] the value was below 100 nM; for `CCN(CC)c1cc2oc(-c3ccc(F)cc3)c(C(=O)NC)c2cc1-c1cccc(C(=O)NCCOc2ccccc2)c1` [Compound 1023], below 100 nM. For `CC[C@H](COCc1ccccc1)NC(=O)c1cccc(-c2cc3c(C(=O)NC)c(-c4ccc(F)cc4)oc3cc2N(CC)CC)c1` [Compound 1024] the value was 100 to 1000 nM; for `CCN(CC)c1cc2oc(-c3ccc(F)cc3)c(C(=O)NC)c2cc1-c1cccc(C(=O)NCCOCc2ccccc2)c1` [Compound 1025], below 100 nM; for `CCN(CC)c1cc2oc(-c3ccc(F)cc3)c(C(=O)NC)c2cc1-c1cccc(C(=O)NC2CCNC2=O)c1` (stereo not drawn) [Compound 1026], 11.1 nM. For `CCN(CC)c1cc2oc(-c3ccc(F)cc3)c(C(=O)NC)c2cc1-c1cccc(C(=O)NC2CNC(=O)C2)c1` (stereo not drawn) [Compound 1027] the value was below 100 nM; for `CCN(CC)c1cc2oc(-c3ccc(F)cc3)c(C(=O)NC)c2cc1-c1cccc(C(=O)NC2CCOCC2)c1` [Compound 1028], below 100 nM. The compound `CCN(CC)c1cc2oc(-c3ccc(F)cc3)c(C(=O)NC)c2cc1-c1cccc(C(=O)NC2CCOC2)c1` (stereo not drawn) [Compound 1029] came in with a concentration giving a half-maximal response (EC50) below 100 nM. For `CCN(CC)c1cc2oc(-c3ccc(F)cc3)c(C(=O)NC)c2cc1-c1cccc(C(=O)N[C@@H]2C3CCC(C3)[C@@H]2CO)c1` (stereo partly drawn) [Compound 1030] the value was below 100 nM; for `CCN(CC)c1cc2oc(-c3ccc(F)cc3)c(C(=O)NC)c2cc1-c1cccc(C(=O)N[C@@]2(C)[C@@H](C(=O)OC)C[C@H]3C[C@@H]2C3(C)C)c1` [Compound 1031], 116 nM.

`CCN(CC)c1cc2oc(-c3ccc(F)cc3)c(C(=O)NC)c2cc1-c1cccc(C(=O)N[C@]2(C)[C@H](C(=O)OC)C[C@@H]3C[C@H]2C3(C)C)c1` [Compound 1032] registered a half-maximal effective concentration (EC50) below 100 nM. Compound `CCN(CC)c1cc2oc(-c3ccc(F)cc3)c(C(=O)NC)c2cc1-c1cccc(C(=O)NC(C)[C@@]23C[C@@H]4C[C@@H](C[C@@](O)(C4)C2)C3)c1` (stereo partly drawn) [Compound 1033] returned an EC50 below 100 nM. For `CCN(CC)c1cc2oc(-c3ccc(F)cc3)c(C(=O)NC)c2cc1-c1cccc(C(=O)N[C@@]23C[C@@H]4C[C@@H](C[C@@](O)(C4)C2)C3)c1` [Compound 1034] the value was below 100 nM; for `CCN(CC)c1cc2oc(-c3ccc(F)cc3)c(C(=O)NC)c2cc1-c1cccc(C(=O)NC23CC4(C)CC(C)(CC(O)(C4)C2)C3)c1` [Compound 1035], below 100 nM; for `CCN(CC)c1cc2oc(-c3ccc(F)cc3)c(C(=O)NC)c2cc1-c1cccc(C(=O)NCC2(C)COC2)c1` [Compound 1036], 26.6 nM. For `CCN(CC)c1cc2oc(-c3ccc(F)cc3)c(C(=O)NC)c2cc1-c1cccc(C(=O)NCC2(CO)COC2)c1` [Compound 1037] the value was below 100 nM; for `CCN(CC)c1cc2oc(-c3ccc(F)cc3)c(C(=O)NC)c2cc1-c1cccc(C(=O)N[C@H]2C3CCC(C3)[C@H]2C(=O)O)c1` (stereo partly drawn) [Compound 1038], 100 to 1000 nM.

In turn, `CCN(CC)c1cc2oc(-c3ccc(F)cc3)c(C(=O)NC)c2cc1-c1cccc(C(=O)NCCCS(=O)(=O)O)c1` [Compound 1039] came in with a concentration giving a half-maximal response (EC50) above 1000 nM.

`CCN(CC)c1cc2oc(-c3ccc(F)cc3)c(C(=O)NC)c2cc1-c1cccc(C(=O)NCS(=O)(=O)O)c1` [Compound 1040] showed a concentration for a half-maximal effect (EC50) above 1000 nM. For `CCN(CC)c1cc2oc(-c3ccc(F)cc3)c(C(=O)NC)c2cc1-c1cccc(C(=O)N[C@H]2CCC[C@H]2C(=O)O)c1` [Compound 1041] the value was 135 nM. For `CCN(CC)c1cc2oc(-c3ccc(F)cc3)c(C(=O)NC)c2cc1-c1cccc(C(=O)N[C@H]2CCC[C@H]2C(=O)N[C@H]2CCC[C@H]2C(=O)O)c1` [Compound 1042] the value was 100 to 1000 nM; for `CCN(CC)c1cc2oc(-c3ccc(F)cc3)c(C(=O)NC)c2cc1-c1cccc(C(=O)N[C@H](CC(=O)O)CC(C)C)c1` [Compound 1043], below 100 nM. In turn, `CCN(CC)c1cc2oc(-c3ccc(F)cc3)c(C(=O)NC)c2cc1-c1cccc(C(=O)N[C@H](CC(=O)N[C@H](CC(=O)O)CC(C)C)CC(C)C)c1` [Compound 1044] came in with a 50% effective concentration (EC50) of 100 to 1000 nM.

`CCN(CC)c1cc2oc(-c3ccc(F)cc3)c(C(=O)NC)c2cc1-c1cccc(C(=O)N[C@@H]2CCCC[C@H]2C(=O)N[C@@H]2CCCC[C@H]2C(=O)O)c1` [Compound 1045] yielded a concentration for a half-maximal effect (EC50) above 1000 nM. In turn, `CCN(CC)c1cc2oc(-c3ccc(F)cc3)c(C(=O)NC)c2cc1-c1cccc(C(=O)NC2(CC(=O)O)CCCC2)c1` [Compound 1046] gave a concentration giving a half-maximal response (EC50) of 22.2 nM. Consider `CCN(CC)c1cc2oc(-c3ccc(F)cc3)c(C(=O)NC)c2cc1-c1cccc(C(=O)N[C@H]2CCCC[C@H]2C(=O)O)c1` [Compound 1047], for which the concentration for a half-maximal effect (EC50) was below 100 nM. For `CCN(CC)c1cc2oc(-c3ccc(F)cc3)c(C(=O)NC)c2cc1-c1cccc(C(=O)N[C@@H]2CCCC[C@@H]2C(=O)O)c1` [Compound 2001] the value was 100 to 1000 nM.

On to `CCN(CC)c1cc2oc(-c3ccc(F)cc3)c(C(=O)NC)c2cc1-c1cccc(C(=O)NC2(CC(=O)O)CCCCC2)c1` [Compound 2002], for which the half-maximal effective concentration (EC50) is below 100 nM.

Compound `CCOP(=O)(O)CCCNC(=O)c1cccc(-c2cc3c(C(=O)NC)c(-c4ccc(F)cc4)oc3cc2N(CC)CC)c1` [Compound 2003] returned an EC50 above 1000 nM. For `CNC(=O)c1c(-c2ccc(F)cc2)oc2cc([N+](=O)[O-])c(-c3cccc(C(=O)NC(CO)(CO)CO)c3)cc12` [Compound 3001] the value was 2540 nM.

One may read the EC50 as the concentration at which the effect is half-maximal. Read a high EC50 as weaker potency.
